Calls of active or inactive are those of the source. The calls are words filed in the database; no cut-off is given here. Where a SMILES comes first, the peptide text is derived from it. The star is where a group is joined. Cbz = O=C(OCc1ccccc1)*
Assays:
[1] = biological target: T1, Estrogen receptor (Homo sapiens) (UniProt P03372); experiment: Induction of ERalpha degradation in human MCF7 cells assessed as decrease in ERalpha protein expression at 10 uM incubated for 24 hrs by Western blot analysis; type: cell-based
T1 sequence (whole entry): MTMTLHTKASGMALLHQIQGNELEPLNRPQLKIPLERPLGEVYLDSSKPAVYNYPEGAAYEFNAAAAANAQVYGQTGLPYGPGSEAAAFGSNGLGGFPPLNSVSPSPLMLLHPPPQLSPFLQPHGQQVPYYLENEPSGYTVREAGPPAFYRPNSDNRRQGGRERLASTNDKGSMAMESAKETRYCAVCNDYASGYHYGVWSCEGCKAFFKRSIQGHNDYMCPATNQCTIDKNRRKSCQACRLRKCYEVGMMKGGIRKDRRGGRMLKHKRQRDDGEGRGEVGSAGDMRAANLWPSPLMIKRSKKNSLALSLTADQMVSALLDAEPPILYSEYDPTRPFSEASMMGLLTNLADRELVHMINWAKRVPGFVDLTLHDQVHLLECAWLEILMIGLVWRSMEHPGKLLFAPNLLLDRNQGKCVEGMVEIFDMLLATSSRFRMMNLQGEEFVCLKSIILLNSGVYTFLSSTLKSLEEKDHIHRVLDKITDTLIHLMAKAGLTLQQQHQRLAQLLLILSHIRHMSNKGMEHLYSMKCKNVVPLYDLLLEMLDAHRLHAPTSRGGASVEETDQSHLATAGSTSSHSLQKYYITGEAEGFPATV

[2] = biological target: T1, Estrogen receptor (Homo sapiens); experiment: Binding affinity to ERalpha (unknown origin) by competitive fluorometric receptor binding assay relative to estradiol
[3] = biological target: Estrogen receptor beta (Homo sapiens) (UniProt Q92731); experiment: Binding affinity to ERbeta (unknown origin) by competitive fluorometric receptor binding assay relative to estradiol
[4] = system: MCF7; experiment: Antiproliferative activity against human MCF7 cell incubated for 72 hrs by MTT assay; type: functional, cell-based; conditions: MCF7, 72 h
[5] = system: MCF-10A; experiment: Cytotoxicity against human MCF10A cell incubated for 72 hrs by MTT assay; type: cell-based
[6] = Therapeutic index, ratio of IC50 for cytotoxicity against human MCF10A cells to IC50 for antiproliferative activity against human MCF7 cells; type: toxicity, cell-based; conditions: read-out: Ratio IC50
[7] = biological target: T1, Estrogen receptor (Homo sapiens); experiment: Induction of ERalpha degradation in human MCF7 cells assessed as decrease in ERalpha protein expression at 5 uM incubated for 24 hrs by Western blot analysis relative to control; type: cell-based; set-up: scale not given: the % may be the effect or the level left
[8] = biological target: T1, Estrogen receptor (Homo sapiens); experiment: Induction of ERalpha degradation in human MCF7 cells assessed as decrease in ERalpha protein expression at 1 uM incubated for 24 hrs by Western blot analysis relative to control; type: cell-based
[9] = biological target: T1, Estrogen receptor (Homo sapiens); experiment: Induction of ERalpha degradation in human MCF7 cells assessed as decrease in ERalpha protein expression at 0.1 to 10 uM incubated for 24 hrs by Western blot analysis; type: cell-based

Estrogen receptor beta (Homo sapiens), sequence (Q92731 whole entry): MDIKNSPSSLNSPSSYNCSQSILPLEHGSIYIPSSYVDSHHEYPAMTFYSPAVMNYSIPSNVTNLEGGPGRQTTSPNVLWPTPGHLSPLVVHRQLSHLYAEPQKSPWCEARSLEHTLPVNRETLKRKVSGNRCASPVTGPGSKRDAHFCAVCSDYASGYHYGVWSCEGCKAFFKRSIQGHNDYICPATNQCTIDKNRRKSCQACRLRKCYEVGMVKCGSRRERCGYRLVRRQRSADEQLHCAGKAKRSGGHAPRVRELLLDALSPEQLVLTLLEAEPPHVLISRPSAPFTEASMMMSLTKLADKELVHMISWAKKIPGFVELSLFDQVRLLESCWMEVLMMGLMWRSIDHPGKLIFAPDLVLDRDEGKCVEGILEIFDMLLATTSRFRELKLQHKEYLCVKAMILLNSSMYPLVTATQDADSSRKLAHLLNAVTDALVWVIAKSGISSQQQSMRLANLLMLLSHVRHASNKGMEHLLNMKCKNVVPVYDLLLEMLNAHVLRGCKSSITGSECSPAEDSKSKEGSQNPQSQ

SMILES | Activity [1] | relative binding affinity (RBA) [2] | relative binding affinity (RBA) [3] | IC50 [4] | Activity [7] | Activity [8] | Activity [9] | IC50 [5] | selectivity ratio [6]
CC(C)C[C@@H](C=O)NC(=O)[C@H](CC(C)C)NC(=O)[C@H](CC(C)C)NC(=O)OCc1ccccc1 (Cbz-Leu-Leu-Leu-aldehyde) | inactive | – | – | – | – | – | – | – | –
CCCCCCOc1ccc(N(C)S(=O)(=O)[C@H]2C[C@H]3O[C@@H]2C(c2ccc(O)cc2)=C3c2ccc(O)cc2)cc1 (relative stereo) | – | 2.02 | 0.12 | 4.14 µM | Active | – | – | 30.4 µM | 7.3
CCCCOc1ccc(C2=C(c3ccc(O)cc3)[C@H]3C[C@H](S(=O)(=O)N(CC(F)(F)F)c4ccc(OC)cc4)[C@@H]2O3)cc1 (relative stereo) | – | 2.11 | 0.85 | 3.02 µM | 100% | – | – | 69.7 µM | 23.1
COc1ccc(N(CC(F)(F)F)S(=O)(=O)[C@H]2C[C@H]3O[C@@H]2C(c2ccc(O)cc2)=C3c2ccc(O)cc2)cc1 (relative stereo) | – | 0.74 | 0.07 | 9.84 µM | – | Active | Active | 41.7 µM | 4.2
CCCCOc1ccc(C2=C(c3ccc(O)cc3)[C@H]3O[C@@H]2C[C@@H]3S(=O)(=O)N(CC(F)(F)F)c2ccc(OC)cc2)cc1 (relative stereo) | – | 1.81 | 0.27 | 2.43 µM | 100% | – | – | 78.3 µM | 32.2
CCCCCCCCOc1ccc(C2=C(c3ccc(O)cc3)[C@H]3O[C@@H]2C[C@@H]3S(=O)(=O)N(CC(F)(F)F)c2ccc(Cl)cc2)cc1 | – | 0.59 | 0.03 | 2.72 µM | – | – | – | 84.2 µM | 30.9
CCCCCCCCCCCCOc1ccc(C2=C(c3ccc(O)cc3)[C@H]3O[C@@H]2C[C@@H]3S(=O)(=O)N(CC(F)(F)F)c2ccc(OC)cc2)cc1 (relative stereo) | – | 0.32 | 0.01 | 86.7 µM | – | – | – | > 100 µM | > 1.1
CCCCCCOc1ccc(C2=C(c3ccc(O)cc3)[C@H]3C[C@H](S(=O)(=O)N(CC)c4ccccc4)[C@@H]2O3)cc1 (relative stereo) | – | 2.99 | 0.35 | 3.45 µM | – | – | – | > 100 µM | > 28.9
CCCCCCCCCCOc1ccc(C2=C(c3ccc(O)cc3)[C@H]3O[C@@H]2C[C@@H]3S(=O)(=O)N(CC(F)(F)F)c2ccc(OC)cc2)cc1 (relative stereo) | – | 1.35 | 0.02 | 25.3 µM | – | – | – | > 100 µM | > 3.9
CCCCCCCCOc1ccc(C2=C(c3ccc(O)cc3)[C@H]3C[C@H](S(=O)(=O)N(CC)c4ccccc4)[C@@H]2O3)cc1 (racemic) | – | 0.55 | 0.02 | 5.89 µM | – | – | – | 59.4 µM | 10
CCCCCOc1ccc(C2=C(c3ccc(O)cc3)[C@H]3C[C@H](S(=O)(=O)N(CC(F)(F)F)c4ccc(OC)cc4)[C@@H]2O3)cc1 (relative stereo) | – | 4.29 | 0.04 | 12.7 µM | 100% | – | – | 97.3 µM | 7.6
CCCCCCCCOc1ccc(C2=C(c3ccc(O)cc3)[C@H]3O[C@@H]2C[C@@H]3S(=O)(=O)N(CC(F)(F)F)c2ccc(OC)cc2)cc1 (relative stereo) | – | 1.59 | 0.15 | 2.39 µM | – | – | – | 42.8 µM | 17.9

Further compounds by falling IC50 [4], results first:

Activity [1] | relative binding affinity (RBA) [2] | relative binding affinity (RBA) [3] | IC50 [4] | Activity [7] | Activity [8] | Activity [9] | SMILES | IC50 [5] | selectivity ratio [6]
– | 3.12 | 0.04 | 1.82 µM | – | – | – | CCCCOc1ccc(C2=C(c3ccc(O)cc3)[C@H]3O[C@@H]2C[C@@H]3S(=O)(=O)N(CC)c2ccccc2)cc1 (relative stereo) | 32.8 µM | 18
– | 1.53 | 0.24 | 1.78 µM | 100% | – | – | CCCCCOc1ccc(C2=C(c3ccc(O)cc3)[C@H]3O[C@@H]2C[C@@H]3S(=O)(=O)N(CC(F)(F)F)c2ccc(OC)cc2)cc1 (relative stereo) | > 100 µM | > 56.1
– | 2.29 | 0.14 | 1.48 µM | Active | – | – | CCCCCCOc1ccc(N(CC)S(=O)(=O)[C@H]2C[C@H]3O[C@@H]2C(c2ccc(O)cc2)=C3c2ccc(O)cc2)cc1 (relative stereo) | 36.5 µM | 24.6
– | 8.37 | 0.01 | 1.15 µM | 100% | – | – | CCCCCCOc1ccc(C2=C(c3ccc(O)cc3)[C@H]3C[C@H](S(=O)(=O)N(CC(F)(F)F)c4ccc(OC)cc4)[C@@H]2O3)cc1 (relative stereo) | 39 µM | 33.9
– | 2.51 | 0.53 | 0.97 µM | – | – | – | CCCCCCOc1ccc(C2=C(c3ccc(O)cc3)[C@H]3O[C@@H]2C[C@@H]3S(=O)(=O)N(CC)c2ccccc2)cc1 (relative stereo) | 42.6 µM | 43.9
– | 4.43 | 0.08 | 0.84 µM | 100% | – | – | CCCCCCOc1ccc(C2=C(c3ccc(O)cc3)[C@H]3O[C@@H]2C[C@@H]3S(=O)(=O)N(CC(F)(F)F)c2ccc(OC)cc2)cc1 | 42.4 µM | 50.4

Reference: ChEMBL document CHEMBL4359894, “Novel class of 7-Oxabicyclo[2.2.1]heptene sulfonamides with long alkyl chains displaying improved estrogen receptor α degradation activity” (Eur J Med Chem, 2019)
